Source: article PMC2248166, “Quantitative peptide binding motifs for 19 human and mouse MHC class I molecules derived using positional scanning combinatorial peptide libraries” (Immunome Research, 2008)
Where a SMILES comes first, the peptide text is derived from it.

target: HLA B*0801 (Homo sapiens, UniProt P01889, A93T/A95T/D138N/E176V/E187T/K202T/Q94N/R180D/S35A/V36M/Y33D/Y91F); experiment: biochemical; assay type: binding

SMILES	IC50 [nM]
CSCC[C@H](NC(=O)[C@H](CCC(N)=O)NC(=O)[C@@H](N)CO)C(=O)N[C@@H](CCC(=O)O)C(=O)N[C@@H](CCCNC(=N)N)C(=O)N[C@@H](Cc1ccccc1)C(=O)N[C@@H](CC(N)=O)C(=O)N[C@@H](CS)C(=O)N[C@@H](CO)C(=O)O [3102.0586] (H-SQMERFNCS-OH)	39
CC(C)C[C@H](NC(=O)[C@H](Cc1ccccc1)NC(=O)[C@H](Cc1ccc(O)cc1)NC(=O)[C@H](CC(C)C)NC(=O)[C@H](CCCNC(=N)N)NC(=O)[C@H](CCC(N)=O)NC(=O)[C@H](CC(C)C)NC(=O)[C@H](Cc1ccccc1)NC(=O)[C@@H](N)Cc1ccccc1)C(=O)O [3102.0589] (H-FFLQRLYFL-OH)	6.8
CC[C@H](C)[C@H](NC(=O)[C@@H](NC(=O)[C@H](CO)NC(=O)[C@H](CCCNC(=N)N)NC(=O)[C@H](CCC(=O)O)NC(=O)[C@H](CCCCN)NC(=O)[C@H](CCSC)NC(=O)[C@@H](N)CCSC)[C@@H](C)O)C(=O)N[C@@H](CC(C)C)C(=O)O [3102.0596] (H-MMKERSTIL-OH)	35
CC[C@H](C)[C@H](NC(=O)[C@H](CCCNC(=N)N)NC(=O)[C@H](CCC(=O)O)NC(=O)[C@H](CCCCN)NC(=O)[C@H](CCSC)NC(=O)[C@@H](N)CC(C)C)C(=O)N[C@@H](CO)C(=O)N[C@@H](CO)C(=O)N[C@@H](CCC(=O)O)C(=O)O [3102.0597] (H-LMKERISSE-OH)	82
CC[C@H](C)[C@H](NC(=O)[C@@H]1CCCN1C(=O)[C@H](CCCNC(=N)N)NC(=O)[C@H](CCCNC(=N)N)NC(=O)[C@H](CCC(=O)O)NC(=O)[C@H](CCCCN)NC(=O)[C@H](CCSC)NC(=O)[C@@H](N)[C@@H](C)O)C(=O)N[C@@H](CC(C)C)C(=O)O [3102.0600] (H-TMKERRPIL-OH)	1.8
CC(C)C[C@H](NC(=O)CNC(=O)[C@@H](N)CC(N)=O)C(=O)N[C@H](C(=O)N[C@@H](CCCNC(=N)N)C(=O)N[C@@H](CC(C)C)C(=O)N[C@@H](CC(N)=O)C(=O)N[C@@H](C)C(=O)N[C@@H](Cc1ccccc1)C(=O)O)C(C)C [3102.0603] (H-NGLVRLNAF-OH)	57
CSCC[C@H](N)C(=O)N[C@@H](Cc1ccc(O)cc1)C(=O)N[C@@H](CCCCN)C(=O)N[C@@H](CO)C(=O)N[C@@H](CCCNC(=N)N)C(=O)N[C@H](C(=O)N[C@@H](CCC(=O)O)C(=O)N[C@@H](CCCNC(=N)N)C(=O)N[C@H](C(=O)O)C(C)C)C(C)C [3102.0607] (H-MYKSRVERV-OH)	47
CC(C)C[C@H](NC(=O)[C@@H]1CCCN1C(=O)[C@H](CCCNC(=N)N)NC(=O)[C@H](Cc1ccccc1)NC(=O)[C@H](CCCCN)NC(=O)[C@H](CCCCN)NC(=O)[C@H](CCCNC(=N)N)NC(=O)[C@H](Cc1ccc(O)cc1)NC(=O)[C@@H](N)Cc1ccccc1)C(=O)O [3102.0608] (H-FYRKKFRPL-OH)	0.088
CC[C@H](C)[C@H](NC(=O)[C@H](CCSC)NC(=O)[C@H](CC(C)C)NC(=O)[C@@H]1CCCN1C(=O)[C@@H](N)CCCNC(=N)N)C(=O)N[C@@H](Cc1ccccc1)C(=O)N[C@@H](CCSC)C(=O)N[C@@H](CO)C(=O)NCC(=O)O [3102.0609] (H-RPLMIFMSG-OH)	12
CC(C)C[C@H](NC(=O)[C@H](CCCNC(=N)N)NC(=O)[C@@H](NC(=O)[C@H](Cc1ccccc1)NC(=O)[C@H](Cc1c[nH]cn1)NC(=O)CNC(=O)[C@H](CCCCN)NC(=O)[C@H](CC(N)=O)NC(=O)[C@@H](N)Cc1ccccc1)[C@@H](C)O)C(=O)O [3102.0610] (H-FNKGHFTRL-OH)	16
CSCC[C@H](NC(=O)[C@@H](NC(=O)[C@H](CS)NC(=O)[C@H](CCCCN)NC(=O)[C@H](CCC(N)=O)NC(=O)[C@H](CC(C)C)NC(=O)[C@H](CCCCN)NC(=O)[C@H](CC(C)C)NC(=O)[C@@H](N)CCSC)C(C)C)C(=O)O [3102.0611] (H-MLKLQKCVM-OH)	9.3
CC[C@H](C)[C@H](NC(=O)[C@H](CO)NC(=O)[C@H](Cc1ccccc1)NC(=O)[C@H](CC(C)C)NC(=O)[C@@H](NC(=O)[C@H](CCCNC(=N)N)NC(=O)[C@H](CC(C)C)NC(=O)[C@@H](N)Cc1c[nH]cn1)C(C)C)C(=O)N[C@@H](Cc1ccccc1)C(=O)O [3102.0612] (H-HLRVLFSIF-OH)	4.7
CC(C)C[C@H](NC(=O)[C@@H]1CCCN1C(=O)[C@@H](N)CO)C(=O)N[C@@H](CO)C(=O)N[C@@H](CCCCN)C(=O)N[C@@H](CS)C(=O)N[C@H](C(=O)N[C@H](C(=O)N[C@H](C(=O)O)C(C)C)C(C)C)C(C)C [3102.0613] (H-SPLSKCVVV-OH)	31
CC[C@H](C)[C@H](NC(=O)[C@H](CO)NC(=O)[C@@H](NC(=O)[C@@H](NC(=O)[C@H](Cc1c[nH]c2ccccc12)NC(=O)[C@H](CCCCN)NC(=O)[C@H](CCSC)NC(=O)[C@@H](N)CCSC)[C@@H](C)CC)[C@@H](C)CC)C(=O)N[C@@H](CC(C)C)C(=O)O [3102.0616] (H-MMKWIISIL-OH)	1.3
CC(C)C[C@H](NC(=O)[C@H](CO)NC(=O)CNC(=O)[C@H](Cc1ccc(O)cc1)NC(=O)[C@H](CCCCN)NC(=O)[C@H](Cc1c[nH]cn1)NC(=O)[C@H](CCCCN)NC(=O)[C@H](CC(C)C)NC(=O)[C@@H](N)Cc1ccccc1)C(=O)O [3102.0617] (H-FLKHKYGSL-OH)	0.14
CC[C@H](C)[C@H](NC(=O)[C@@H](NC(=O)[C@H](CC(C)C)NC(=O)[C@H](Cc1ccccc1)NC(=O)[C@H](Cc1c[nH]cn1)NC(=O)[C@@H](NC(=O)[C@@H](NC(=O)[C@H](CCCCN)NC(=O)[C@@H](N)CCC(=O)O)[C@@H](C)CC)[C@@H](C)CC)[C@@H](C)O)C(=O)O [3102.0618] (H-EKIIHFLTI-OH)	5
CSCC[C@H](NC(=O)[C@H](CS)NC(=O)[C@H](CCCNC(=N)N)NC(=O)[C@H](Cc1ccc(O)cc1)NC(=O)[C@H](CCCCN)NC(=O)[C@H](CCCCN)NC(=O)[C@@H](N)CC(N)=O)C(=O)N[C@@H](C)C(=O)N[C@@H](CC(C)C)C(=O)O [3102.0619] (H-NKKYRCMAL-OH)	1.9
CC[C@H](C)[C@H](NC(=O)[C@@H](N)CS)C(=O)N[C@H](C(=O)N[C@@H](CC(N)=O)C(=O)N[C@@H](CCCCN)C(=O)N[C@@H](Cc1ccccc1)C(=O)N[C@@H](CCSC)C(=O)N[C@@H](CO)C(=O)N[C@@H](Cc1ccccc1)C(=O)O)C(C)C [3102.0620] (H-CIVNKFMSF-OH)	60
CC[C@H](C)[C@H](NC(=O)[C@H](CCCNC(=N)N)NC(=O)[C@@H](N)CO)C(=O)N[C@@H](CO)C(=O)N[C@@H](CCCNC(=N)N)C(=O)N[C@@H](Cc1ccccc1)C(=O)N[C@@H](C)C(=O)N[C@@H](CC(N)=O)C(=O)N[C@@H](CC(C)C)C(=O)O [3102.0622] (H-SRISRFANL-OH)	20
CC[C@H](C)[C@H](NC(=O)[C@@H]1CCCN1C(=O)[C@@H](N)CCC(=O)O)C(=O)N[C@@H](CCCCN)C(=O)N[C@@H](Cc1c[nH]cn1)C(=O)N[C@@H](CCCCN)C(=O)N[C@@H](Cc1ccc(O)cc1)C(=O)N1CCC[C@H]1C(=O)N[C@@H](CC(C)C)C(=O)O [3102.0624] (H-EPIKHKYPL-OH)	1.3
C[C@H](NC(=O)[C@H](Cc1ccccc1)NC(=O)[C@H](CO)NC(=O)[C@H](CS)NC(=O)[C@H](CCCNC(=N)N)NC(=O)[C@H](Cc1ccc(O)cc1)NC(=O)[C@H](CCCNC(=N)N)NC(=O)[C@H](CCCNC(=N)N)NC(=O)[C@@H](N)CO)C(=O)O [3102.0625] (H-SRRYRCSFA-OH)	52
